Laboratory results taken from the NIST ThermoML archive (doi:10.1016/j.jct.2007.05.008).
Numbers after ± are expanded uncertainties.

Assay: mn = molality of the nth substance listed, in mol/kg
Details: 350 kPa, Liquid; for apparent molar heat capacity: Extra sensitive DSC

Question: What does the source list for `[I-].[K+]` [potassium iodide] + O?
Answer: mass density (278.15 K, m1 = 0.0151): 1001.67 ± 0.16 kg/m3; mass density (278.15 K, m1 = 0.0299): 1003.68 ± 0.15 kg/m3; mass density (278.15 K, m1 = 0.0701): 1008.43 ± 0.15 kg/m3; mass density (278.15 K, m1 = 0.2001): 1024.58 ± 0.16 kg/m3; mass density (278.15 K, m1 = 0.5376): 1064.35 ± 0.19 kg/m3; mass density (278.15 K, m1 = 0.6957): 1081.95 ± 0.2 kg/m3; mass density (278.15 K, m1 = 1.001): 1117.05 ± 0.23 kg/m3; mass density (278.15 K, m1 = 2.5): 1271.29 ± 0.38 kg/m3; mass density (278.15 K, m1 = 4.636): 1453.94 ± 0.56 kg/m3; mass density (278.15 K, m1 = 5.479): 1515.42 ± 0.62 kg/m3; mass density (278.15 K, m1 = 7.501): 1648.17 ± 0.76 kg/m3; mass density (283.15 K, m1 = 0.0151): 1001.47 ± 0.16 kg/m3; mass density (283.15 K, m1 = 0.0299): 1003.4 ± 0.15 kg/m3; mass density (283.15 K, m1 = 0.0701): 1008.17 ± 0.15 kg/m3; mass density (283.15 K, m1 = 0.2001): 1024.09 ± 0.16 kg/m3; mass density (283.15 K, m1 = 0.5376): 1063.61 ± 0.19 kg/m3; mass density (283.15 K, m1 = 0.6957): 1081.08 ± 0.2 kg/m3; mass density (283.15 K, m1 = 1.001): 1115.82 ± 0.23 kg/m3; mass density (283.15 K, m1 = 2.5): 1268.99 ± 0.37 kg/m3; mass density (283.15 K, m1 = 4.636): 1450.65 ± 0.55 kg/m3; mass density (283.15 K, m1 = 5.479): 1512.83 ± 0.62 kg/m3; mass density (283.15 K, m1 = 7.501): 1645.23 ± 0.75 kg/m3; mass density (288.15 K, m1 = 0.0151): 1000.88 ± 0.16 kg/m3; mass density (288.15 K, m1 = 0.0299): 1002.77 ± 0.15 kg/m3; mass density (288.15 K, m1 = 0.0701): 1007.55 ± 0.15 kg/m3; mass density (288.15 K, m1 = 0.2001): 1023.33 ± 0.16 kg/m3; mass density (288.15 K, m1 = 0.5376): 1062.62 ± 0.19 kg/m3; mass density (288.15 K, m1 = 0.6957): 1080.04 ± 0.2 kg/m3; mass density (288.15 K, m1 = 1.001): 1114.31 ± 0.23 kg/m3; mass density (288.15 K, m1 = 2.5): 1266.38 ± 0.37 kg/m3; mass density (288.15 K, m1 = 4.636): 1448.01 ± 0.55 kg/m3; mass density (288.15 K, m1 = 5.479): 1510.11 ± 0.61 kg/m3; mass density (288.15 K, m1 = 7.501): 1642.29 ± 0.75 kg/m3; mass density (298.15 K, m1 = 0.0151): 998.82 ± 0.17 kg/m3; mass density (298.15 K, m1 = 0.0299): 1000.63 ± 0.15 kg/m3; mass density (298.15 K, m1 = 0.0701): 1005.39 ± 0.15 kg/m3; mass density (298.15 K, m1 = 0.2001): 1021 ± 0.16 kg/m3; mass density (298.15 K, m1 = 0.5376): 1059.83 ± 0.18 kg/m3; mass density (298.15 K, m1 = 0.6957): 1077.25 ± 0.2 kg/m3; mass density (298.15 K, m1 = 1.001): 1110.96 ± 0.22 kg/m3; mass density (298.15 K, m1 = 2.5): 1261.31 ± 0.36 kg/m3; mass density (298.15 K, m1 = 4.636): 1441.32 ± 0.55 kg/m3; mass density (298.15 K, m1 = 5.479): 1503.36 ± 0.61 kg/m3; mass density (298.15 K, m1 = 7.501): 1635.01 ± 0.74 kg/m3; apparent molar heat capacity (303.15 K, m1 = 5.479): 1.3 ± 5 J/K/mol; apparent molar heat capacity (308.15 K, m1 = 4.001): 0.4 J/K/mol; apparent molar heat capacity (308.15 K, m1 = 5.479): 1.8 ± 5 J/K/mol; mass density (308.15 K, m1 = 0.0151): 995.79 ± 0.16 kg/m3; mass density (308.15 K, m1 = 0.0299): 997.53 ± 0.15 kg/m3; mass density (308.15 K, m1 = 0.0701): 1002.28 ± 0.15 kg/m3; mass density (308.15 K, m1 = 0.2001): 1017.73 ± 0.15 kg/m3; mass density (308.15 K, m1 = 0.5376): 1056.13 ± 0.18 kg/m3; mass density (308.15 K, m1 = 0.6957): 1073.61 ± 0.19 kg/m3; mass density (308.15 K, m1 = 1.001): 1106.78 ± 0.22 kg/m3; mass density (308.15 K, m1 = 2.5): 1255.84 ± 0.36 kg/m3; mass density (308.15 K, m1 = 4.636): 1434.16 ± 0.54 kg/m3; mass density (308.15 K, m1 = 5.479): 1495.89 ± 0.6 kg/m3; mass density (308.15 K, m1 = 7.501): 1626.88 ± 0.74 kg/m3; apparent molar heat capacity (313.15 K, m1 = 4.001): 1.4 ± 5 J/K/mol; apparent molar heat capacity (313.15 K, m1 = 5.479): 1.7 ± 5.2 J/K/mol; apparent molar heat capacity (318.15 K, m1 = 4.001): 1.9 ± 5.2 J/K/mol; apparent molar heat capacity (318.15 K, m1 = 5.479): 1.2 ± 5.2 J/K/mol; mass density (318.15 K, m1 = 0.0151): 991.94 ± 0.16 kg/m3; mass density (318.15 K, m1 = 0.0299): 993.68 ± 0.15 kg/m3; mass density (318.15 K, m1 = 0.0701): 998.38 ± 0.15 kg/m3; mass density (318.15 K, m1 = 0.2001): 1013.67 ± 0.15 kg/m3; mass density (318.15 K, m1 = 0.5376): 1051.77 ± 0.18 kg/m3; mass density (318.15 K, m1 = 0.6957): 1069.13 ± 0.19 kg/m3; mass density (318.15 K, m1 = 1.001): 1101.94 ± 0.22 kg/m3; mass density (318.15 K, m1 = 2.5): 1249.89 ± 0.35 kg/m3; mass density (318.15 K, m1 = 4.636): 1426.64 ± 0.53 kg/m3; mass density (318.15 K, m1 = 5.479): 1488.09 ± 0.59 kg/m3; mass density (318.15 K, m1 = 7.501): 1618.36 ± 0.73 kg/m3; apparent molar heat capacity (323.15 K, m1 = 4.001): 2 ± 5.2 J/K/mol; apparent molar heat capacity (323.15 K, m1 = 5.479): 0.4 J/K/mol; apparent molar heat capacity (328.15 K, m1 = 4.001): 1.7 ± 5.2 J/K/mol; mass density (328.15 K, m1 = 0.0151): 987.43 ± 0.16 kg/m3; mass density (328.15 K, m1 = 0.0299): 989.17 ± 0.15 kg/m3; mass density (328.15 K, m1 = 0.0701): 993.85 ± 0.15 kg/m3; mass density (328.15 K, m1 = 0.2001): 1008.93 ± 0.15 kg/m3; mass density (328.15 K, m1 = 0.5376): 1046.78 ± 0.17 kg/m3; mass density (328.15 K, m1 = 0.6957): 1064 ± 0.18 kg/m3; mass density (328.15 K, m1 = 1.001): 1096.55 ± 0.21 kg/m3; mass density (328.15 K, m1 = 2.5): 1243.46 ± 0.35 kg/m3; mass density (328.15 K, m1 = 4.636): 1418.83 ± 0.52 kg/m3; mass density (328.15 K, m1 = 5.479): 1479.85 ± 0.58 kg/m3; mass density (328.15 K, m1 = 7.501): 1609.25 ± 0.72 kg/m3; apparent molar heat capacity (333.15 K, m1 = 4.001): 1.3 ± 5.4 J/K/mol; apparent molar heat capacity (338.15 K, m1 = 4.001): 0.6 ± 5.4 J/K/mol; mass density (338.15 K, m1 = 0.0151): 982.32 ± 0.17 kg/m3; mass density (338.15 K, m1 = 0.0299): 984.03 ± 0.15 kg/m3; mass density (338.15 K, m1 = 0.0701): 988.65 ± 0.15 kg/m3; mass density (338.15 K, m1 = 0.2001): 1003.58 ± 0.14 kg/m3; mass density (338.15 K, m1 = 0.5376): 1041.14 ± 0.17 kg/m3; mass density (338.15 K, m1 = 0.6957): 1058.16 ± 0.18 kg/m3; mass density (338.15 K, m1 = 1.001): 1090.66 ± 0.21 kg/m3; mass density (338.15 K, m1 = 2.5): 1236.58 ± 0.34 kg/m3; mass density (338.15 K, m1 = 4.636): 1410.65 ± 0.51 kg/m3; mass density (338.15 K, m1 = 5.479): 1471.57 ± 0.57 kg/m3; mass density (338.15 K, m1 = 7.501): 1600.65 ± 0.71 kg/m3; mass density (348.15 K, m1 = 0.0151): 976.56 ± 0.17 kg/m3; mass density (348.15 K, m1 = 0.0299): 978.32 ± 0.16 kg/m3; mass density (348.15 K, m1 = 0.0701): 982.92 ± 0.15 kg/m3; mass density (348.15 K, m1 = 0.2001): 997.75 ± 0.14 kg/m3; mass density (348.15 K, m1 = 0.5376): 1035.02 ± 0.16 kg/m3; mass density (348.15 K, m1 = 0.6957): 1051.97 ± 0.17 kg/m3; mass density (348.15 K, m1 = 1.001): 1084.3 ± 0.2 kg/m3; mass density (348.15 K, m1 = 2.5): 1229.37 ± 0.33 kg/m3; mass density (348.15 K, m1 = 4.636): 1402.31 ± 0.51 kg/m3; mass density (348.15 K, m1 = 5.479): 1463.16 ± 0.57 kg/m3; mass density (348.15 K, m1 = 7.501): 1591.74 ± 0.7 kg/m3; mass density (358.15 K, m1 = 0.0151): 970.33 ± 0.18 kg/m3; mass density (358.15 K, m1 = 0.0299): 972.11 ± 0.16 kg/m3; mass density (358.15 K, m1 = 0.0701): 976.68 ± 0.16 kg/m3; mass density (358.15 K, m1 = 0.2001): 991.55 ± 0.15 kg/m3; mass density (358.15 K, m1 = 0.5376): 1028.65 ± 0.16 kg/m3; mass density (358.15 K, m1 = 0.6957): 1045.42 ± 0.17 kg/m3; mass density (358.15 K, m1 = 1.001): 1077.52 ± 0.2 kg/m3; mass density (358.15 K, m1 = 2.5): 1221.83 ± 0.32 kg/m3; mass density (358.15 K, m1 = 4.636): 1393.66 ± 0.5 kg/m3; mass density (358.15 K, m1 = 5.479): 1455.05 ± 0.56 kg/m3; mass density (358.15 K, m1 = 7.501): 1583.19 ± 0.69 kg/m3; mass density (368.15 K, m1 = 0.0151): 963.58 ± 0.17 kg/m3; mass density (368.15 K, m1 = 0.0299): 965.34 ± 0.17 kg/m3; mass density (368.15 K, m1 = 0.0701): 969.93 ± 0.16 kg/m3; mass density (368.15 K, m1 = 0.2001): 984.74 ± 0.15 kg/m3; mass density (368.15 K, m1 = 0.5376): 1021.81 ± 0.16 kg/m3; mass density (368.15 K, m1 = 0.6957): 1038.47 ± 0.16 kg/m3; mass density (368.15 K, m1 = 1.001): 1070.31 ± 0.19 kg/m3; mass density (368.15 K, m1 = 2.5): 1213.99 ± 0.33 kg/m3; mass density (368.15 K, m1 = 4.636): 1384.78 ± 0.49 kg/m3; mass density (368.15 K, m1 = 5.479): 1446.45 ± 0.55 kg/m3; mass density (368.15 K, m1 = 7.501): 1574.23 ± 0.68 kg/m3
